Test results from patent US10513499B2, “Inhibitors of alpha-amino-beta-carboxymuconic acid semialdehyde decarboxylase” (TES Pharma S.r.l., priority 2014, dated 2019).
“Also recorded” adds a separate entry of the source.

Tests used:
HePG2 cells = test: Cytotoxicity in HePG2 cells (LDH release, ATP level); type: cell-based; conditions: 10 nM to 300 μM, 4 hrs
Method: (§1) HePG2 and AML-12 cells are seeded and a dose-response of the compound is performed at various concentrations. Cells are stimulated and the supernatant is used to perform LDH release as a measure of necrosis while the cells are lysed to detect ATP levels for determining cell viability.
(§2) Cytotoxicity: 20000 HePG2 and AML-12 cells were seeded in 96 well plate (Viewplate PerkinElmer). Dose-response of the compound in Table 2 was performed using HP D300 digital dispenser, ranging from 10 nM to 300 μM with constant DMSO 1% in medium. Cells were stimulated for 4 hrs at 37° C.; the supernatant was used to perform LDH release (Cytotox-one, Promega) as a measure of necrosis while the cells were lysed to detect ATP level for determining cell viability (Celltiter-glo, Promega) according to manufacturer's instructions.

AML-12 cells [1] = test: Cytotoxicity in AML-12 cells (LDH release, ATP level); type: cell-based, mouse; conditions: 10 nM to 300 μM, 4 hrs
Method: as §1, §2

[2] = system: human primary hepatocytes; test: NAD+ content in human primary hepatocytes by LCMS/MS; type: cell-based; conditions: tested at 0.5 μM and 5 μM; compound replaced every 24 hrs
Method: Primary hepatocytes are treated with different concentrations of a compound of Formula (I), Formula (Ia), Formula (Ib), Formula (II), or Formula (III), or a pharmaceutically acceptable salt thereof, or MEHP (control) after seeding. The compound is replaced every 24 hours, and then cells are directly harvested and lysed to detect NAD^+ content through LC MS/MS (liquid chromatography mass spectrometry/mass spectroscopy).
The NAD^+ concentration or content was determined in human primary hepatocytes treated with Compound 4. Vehicle (NT) was used as a control.
At least three experiments were run treating primary hepatocytes with different concentrations of Compound 4 (0.5 μM and 5 μM) after 48 hrs from seeding. Compound 4 was replaced every 24 hrs, and then cells were directly harvested and lysed with ACN/H2O (ratio 5:1). LCMS/MS was used to detect and measure NAD^+ concentration/content. […] (FIG. 1)
The NAD^+ concentration or content was determined in human primary hepatocytes treated with Compound 1 and MEHP, a known ACMSD inhibitor. MEHP was used as a control.
At least three experiments were run treating primary hepatocytes with different concentrations of Compound 1 (0.5 μM, 5 μM, and 50 μM) after 48 hrs from seeding. Compound 1 was replaced every 24 hrs, and then cells were directly harvested and lysed with ACN/H2O (ratio 5:1). […]

[3] = system: SOD2 activity in AML-12 cells; test: Modulation of SOD2 activity in AML-12 cells; type: cell-based, mouse; conditions: 24 hours
Method: Primary hepatocytes or AML-12 cells are lysed and total protein concentration is determined using the Bradford assay. SOD2 activity is determined at indicated times after treatment with a compound of Formula (I), Formula (Ia), Formula (Ib), Formula (II), or Formula (III), or a pharmaceutically acceptable salt thereof, using a SOD Assay Kit. Absorbance is determined and results are expressed in U/ml/mg of protein according to the standard curve and measured protein concentration. […]
(§3) Primary hepatocytes or AML-12 cells were then lysed in a 20 mM HEPES buffer (Gibco), pH 7.2, containing 1 mM EGTA (Sigma), 210 mM mannitol (Sigma), and 70 mM sucrose (AMRESCO). Total protein concentration was determined using the Bradford assay (BioRad). SOD-2 activity was determined at indicated times after ACMSD inhibitor treatment by the SOD Assay Kit (Cayman Chemical) according to the manufacturer's instructions. […] Absorbance was determined with a Victor X4 multi-label plate reader (Perkin-Elmer) at 450 nm. Results are expressed in U/ml/mg of protein according to the standard curve and measured protein concentration.

[4] = system: SOD2 activity in primary murine hepatocytes; test: Modulation of SOD2 activity in murine primary hepatocytes; type: cell-based, mouse; conditions: for SOD2 activity: primary murine hepatocytes, 24 hours
Method: Primary hepatocytes or AML-12 cells are lysed and total protein concentration is determined using the Bradford assay. SOD2 activity is determined at indicated times after treatment with a compound of Formula (I), Formula (Ia), Formula (Ib), Formula (II), or Formula (III), or a pharmaceutically acceptable salt thereof, using a SOD Assay Kit. Absorbance is determined and results are expressed in U/ml/mg of protein according to the standard curve and measured protein concentration.
Primary hepatocytes were prepared from 8-12-week-old C57BL/6J mice by collagenase perfusion method. Mouse livers were perfused with Hank's balanced salt solution (HBSS, KCl, 5.4 mM; KH2PO4, 0.45 mM; NaCl, 138 mM; NaHCO3, 4.2 mM; Na2HPO4, 0.34 mM; glucose, 5.5 mM; […]; EGTA, 50 mM; CaCl2, 50 mM; pH 7.4). Livers were then washed at a rate of 5 ml/min through the portal vein. After washing, livers were perfused with collagenase (0.025%) solution. Cell viability was assessed by the trypan blue method. Isolated primary hepatocytes were plated with DMEM medium (Gibco) including 10% FCS, 10 units per ml penicillin and HEPES for buffering. The cells were maintained in culture at 37° C. in a humidified atmosphere of 5% CO2/95% air. After 6-8 hrs of attachment, this medium was replaced with media containing different concentrations of an ACMSD inhibitor (i.e., Compound 1 or Compound 17) or with the corresponding concentration of DMSO (as a control). […]
as §3

Hepa-1.6 cells = test: RT-qPCR analysis of SIRT1-regulated genes in Hepa-1.6 cells; type: cell-based; conditions: 24 hrs
Method: (§4) Cells (AML-12, Hepa-1.6, HEK-293, primary human and murine hepatocytes) are treated with different concentrations of a compound of Formula (I), Formula (Ia), Formula (Ib), Formula (II), or Formula (III), or a pharmaceutically acceptable salt thereof and the gene expression of ACMSD, Pgc1a, Sod1, and Sod2 (MnSOD) is determined using RT-qPCR. Total RNA is extracted from cells and the extracted RNA is treated with DNase and used for reverse transcription (RT).
(§5) Gene expression of ACMSD and genes known to be regulated by SIRT1, (an enzyme that is strictly NAD^+ dependent) such as Pgc1a, Sod1, Sod2 (MnSOD), were analysed in AML-12 cells, Hepa-1.6 cells and primary murine hepatocytes treated with Compound 1 or 17.
(§6) Cells (AML-12, Hepa-1.6, HEK-293, primary human and murine hepatocytes) were treated with different concentrations of Compound 1 or Compound 17. Total RNA was extracted from cells using TRIzol (Invitrogen) according to the manufacturer's instructions. The RNA was treated with DNase, and 2 μg of RNA was used for reverse transcription (RT). 50× diluted cDNA was used for RT-quantitative PCR (RT-qPCR) reactions. The RT-qPCR reactions were performed using the Light-Cycler system (Roche Applied Science) and a qPCR Supermix (QIAGEN) with the indicated primers. The average of at least three technical repeats was used for each biological data point.

AML-12 cells [5] = test: RT-qPCR analysis of SIRT1-regulated genes in AML-12 cells; type: cell-based, mouse; conditions: 24 hrs
Method: as §4, §5, §6

[6] = system: FoxO1 phosphorylation at Ser256; test: FoxO1 phosphorylation levels in AML-12 cells (western blot); type: cell-based, mouse; conditions: 24 hours, increasing dose
Method: AML-12 cells are treated with different concentrations of a compound of Formula (I), Formula (Ia), Formula (Ib), Formula (II), or Formula (III), or a pharmaceutically acceptable salt thereof. Cells are then lysed, and analyzed by SDS-PAGE/western blot. Blocking and antibody incubations are then done and each protein present is detected with its specific antibody.
AML-12 cells were treated with different concentrations of Compound 1 or Compound 17 for 24 hours. Cells were then lysed in lysis buffer (50 mM Tris, 150 mM KCl, EDTA 1 mM, NP40 1%) containing protease and phosphatase inhibitors, and analyzed by SDS-PAGE/western blot. Blocking and antibody incubations were done in 5% milk. Each protein present was detected with its specific antibody. Tubulin antibody was obtained from Sigma Inc, FoxO1 and phopho-FoxO1 (Ser256) antibodies were obtained from Cell Signaling. Antibody detection reactions were developed by enhanced chemiluminescence (Advansta, Calif., USA) using x-ray films.

ACMSD-1 = ACMSD-1 (Homo sapiens (Human), UniProt Q8TDX5); test: ACMSD-1 modulation in HEK293T cells transiently expressing ACMSD; type: cell-based; conditions: about 50 nM to about 5 uM; stimulated 48 hrs to 72 hrs
Chain of ACMSD-1 (Q8TDX5 whole entry): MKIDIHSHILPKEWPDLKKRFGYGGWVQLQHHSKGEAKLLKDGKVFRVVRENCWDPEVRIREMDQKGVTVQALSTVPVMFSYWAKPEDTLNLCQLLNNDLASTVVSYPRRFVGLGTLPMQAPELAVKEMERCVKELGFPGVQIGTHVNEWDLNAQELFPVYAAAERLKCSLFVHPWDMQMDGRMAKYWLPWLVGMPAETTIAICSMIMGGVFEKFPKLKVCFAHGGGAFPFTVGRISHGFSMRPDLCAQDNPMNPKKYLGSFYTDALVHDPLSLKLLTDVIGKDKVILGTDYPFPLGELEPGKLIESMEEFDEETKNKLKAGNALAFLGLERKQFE
Method: HEK293T cells are seeded and transfected to transiently express ACMSD. The cells are then stimulated with different concentrations of Compound 1, and then lysed to measure the ACMSD activity in a spectrophotometrical in vitro assay. The amount of the whole protein content in cell lysates is detected by Bradford analysis and used to get the specificity activity of the enzyme normalized in all samples.
HEK293T cells (ATCC) were seeded in six-well plates and transfected using Fugene HD to express transiently ACMSD. 24 hrs post transfection, the cells were stimulated for 48 hrs to 72 hrs with different concentrations of Compound 1 and then lysed to measure the ACMSD activity, by measuring the conversion of 30H-Anthranilic Acid into product (i.e. α-amino-beta-carboxymuconate-ε-semialdehyde, ACMS) in a spectrophotometrical in vitro assay. The amount of the whole protein content in cell lysates was detected by Bradford analysis. This value was used to get the specificity activity of the enzyme normalized in all samples (mU/ml or ΔE/Δt/mg of total protein).
Having determined the optimum stimulation time and transfection protocol cells were stimulated with different concentrations of Compound 1 (about 50 nM to about 5 uM).

[7] = system: primary mouse hepatocytes; test: RT-qPCR analysis of SIRT1-regulated genes in primary mouse hepatocytes; type: cell-based; conditions: 24 hrs, 5 nM-500 nM range
Method: as §4, §5, §6

[8] = system: murine primary hepatocytes; test: NAD+ content in murine primary hepatocytes (HPLC, mass-spectrometry); type: cell-based, mouse; conditions: 5 nM, 10 nM and 50 nM for 24 hours
MDCK cells = test: Modulation of cisplatin-induced caspase 3/7 activity in MDCK cells; type: cell-based; conditions: for EC50: Canis lupus familiaris, MDCK
Method: MDCK cells are cultured in base medium to a final concentration of 10%. Cells are plated into 96 wells and 24 hours after cell plating the medium is changed with fresh medium supplemented with 1% FBS. Cisplatin is then used to induce cell injury. Different concentrations of Formula (I), Formula (Ia), Formula (Ib), Formula (II), or Formula (III), or a pharmaceutically acceptable salt thereof (in DMSO) are added in combination with cisplatin or prior to adding cisplatin. Caspase 3/7 activity (Promega) is determined according to standard procedures using a luminescent signal readout on a plate reader. Each experiment/condition is performed in triplicate. Caspase activity is analyzed as percentage effect normalized to the cisplatin alone and vehicle treated cells.
An in vitro study was performed to determine the effects of compounds of Formula (I), Formula (Ia), Formula (Ib), Formula (II), or Formula (III), or a pharmaceutically acceptable salt thereof, on Acute Kidney Injury in MDCK cells.
MDCK cells (MDCK (NBL-2) ATCC® CCL-34™) were cultured in base medium ATCC-formulated Eagle's Minimum Essential Medium, Catalog No. 30-2003 with fetal bovine serum (FBS) to a final concentration of 10%. 10,000 cells were plated into 96 wells and 24 hours after cell plating the medium was changed with fresh medium supplemented with 1% FBS. Cisplatin (50 μM for 16 hrs) was then used to induce cell injury. Different concentrations of Compound 18 (in 1% DMSO) were added in combination with cisplatin (FIG. 1) or 1 hour prior adding cisplatin (FIG. 2).
Caspase 3/7 activity (Promega) was determined according to standard procedures using a luminescent signal readout on a Victor V plate reader (PerkinElmer). Each experiment/condition was performed in triplicate.
Caspase activity was analyzed as percentage effect normalized to the cisplatin alone (100%) and vehicle treated cells as 0% of caspase activity. Data were analyzed by GraphPad Software. One-way analysis of variance (Dunnett's Multiple Comparison test) was used for statistical analyses.

N#Cc1c(-c2cccs2)nc(SCc2cccc(-c3noc(=O)[nH]3)c2)[nH]c1=O [Compound 19]
Cytotoxicity Hep-G2 (HePG2 cells): Not Toxic
Cytotoxicity AML-12 (AML-12 cells [1]): Not Toxic

N#Cc1c(-c2ccc(Cl)cc2)nc(SCc2ccc(C(=O)O)cc2)[nH]c1=O [Compound 8]
Cytotoxicity Hep-G2 (HePG2 cells): Not Toxic
Cytotoxicity AML-12 (AML-12 cells [1]): Not Toxic

O=C(O)c1cccc(CSc2nc(-c3ccccc3)c(Br)c(=O)[nH]2)c1 [Compound 11]
Cytotoxicity Hep-G2 (HePG2 cells): Not Toxic
Cytotoxicity AML-12 (AML-12 cells [1]): Not Toxic

N#Cc1c(-c2cccs2)nc(SCc2cccc(C(=O)O)c2)[nH]c1=O [Compound 4]
Cytotoxicity Hep-G2 (HePG2 cells): Not Toxic
Cytotoxicity AML-12 (AML-12 cells [1]): Not Toxic
concentration at which ACMSD-1 enzyme is inhibited (NAD+ content, FIG. 1) [2]: ≤ 0.5 µM

N#Cc1c(-c2nccs2)nc(SCc2cccc(C(=O)O)c2)[nH]c1=O [Compound 5]
Cytotoxicity Hep-G2 (HePG2 cells): Not Toxic
Cytotoxicity AML-12 (AML-12 cells [1]): Not Toxic

N#Cc1c(-c2ccccc2)nc(SCc2cccc(C(=O)O)c2)[nH]c1=O [Compound 1]
SOD2 activity [3]: induced in a dose-dependent manner
SOD2 activity [4]: induced in a dose-dependent manner
Sod2 mRNA levels (Hepa-1.6 cells): increased in a dose-dependent manner
Cytotoxicity Hep-G2 (HePG2 cells): Not Toxic
Sod2 mRNA levels (AML-12 cells [5]): increased in a dose-dependent manner
Cytotoxicity AML-12 (AML-12 cells [1]): Not Toxic
FoxO1 phosphorylation at Ser256 [6]: decrease
ACMSD-1 activity in over-expression cell-based assay (ACMSD-1): inhibited ACMSD-1 activity, in a dose dependent manner

N#Cc1c(-c2cccs2)nc(SCc2cccc(-c3nn[nH]n3)c2)[nH]c1=O [Compound 17]
SOD2 activity [3]: induced in a dose-dependent manner
Pgc1a mRNA expression level [7]: dose-dependent increase
Sod2 (MnSOD) mRNA expression level [7]: dose-dependent increase
dose at which effect on SOD2 activity reached a maximum ([4]; primary hepatocytes): about 50 nM
SOD2 activity [4]: induced in a dose-dependent manner
Cytotoxicity Hep-G2 (HePG2 cells): Not Toxic
intra-cellular NAD+ levels [8]: significant and dose-dependent increase; also recorded: increase in NAD^+ levels
Cytotoxicity AML-12 (AML-12 cells [1]): Not Toxic
FoxO1 phosphorylation at Ser256 [6]: decrease

N#Cc1c(-c2cccs2)nc(SCc2cccc(CC(=O)O)c2)[nH]c1=O [Compound 18]
EC50 (MDCK cells; 1 h, added one hour prior to cisplatin, 1 μM to 125 μM): 30 µM
EC50 (MDCK cells; added in combination with cisplatin, 0.01 μM to 100 μM): 70 µM
activity of caspase 3/7 induced by cisplatin (MDCK cells; MDCK cells, cisplatin 50 μM for 16 hrs): decreases, in significant manner
